Data: ChEMBL document CHEMBL3352133, “Antimalarial chemotherapy: orally curative artemisinin-derived trioxane dimer esters” (Bioorg Med Chem Lett, 2015)

What was measured:
Plasmodium berghei [1] = experiment: Antimalarial activity Plasmodium berghei ANKA infected in C57BL/6J mouse assessed as mouse survival at 6 mg/kg, po administered as single dose combined with 18 mg/kg mefloquine hydrochloride; format: functional
Plasmodium berghei [2] = experiment: Antimalarial activity Plasmodium berghei ANKA infected in C57BL/6J mouse assessed as suppression of parasitemia at 6 mg/kg, po administered as single dose combined with 18 mg/kg mefloquine hydrochloride measured on day 3 after innfection; format: functional
[3] = Lipophilicity, logP of the compound; format: physicochemical; settings: octanol/water
[4] = Stability in pH 2 in acetonitrile and water at 37 degC; format: physicochemical; settings: acetonitrile and water at pH 2, pH 2; read-out: Stability (converted)
Plasmodium = experiment: Antimalarial activity Plasmodium; format: functional

**Q.** Which Survival (Plasmodium berghei [1]) does the source give for C[C@H]1[C@@H](CC(COC(=O)c2cc(F)nc(F)c2)C[C@H]2O[C@@H]3O[C@@]4(C)CC[C@H]5[C@H](C)CC[C@@H]([C@H]2C)[C@@]35OO4)O[C@@H]2O[C@@]3(C)CC[C@H]4[C@H](C)CC[C@@H]1[C@@]24OO3 here?
**A.** 23.5 days

**Q.** And the Activity (Plasmodium berghei [2])?
**A.** >99.9%

**Q.** And the logP ([3]; read-out: logP)?
**A.** 8.9

**Q.** Which results are given for Cc1cc(C(=O)OCC(C[C@H]2O[C@@H]3O[C@@]4(C)CC[C@H]5[C@H](C)CC[C@@H]([C@H]2C)[C@@]35OO4)C[C@H]2O[C@@H]3O[C@@]4(C)CC[C@H]5[C@H](C)CC[C@@H]([C@H]2C)[C@@]35OO4)cc(C)n1?
**A.** Survival (Plasmodium berghei [1]): 25.8 days; Activity (Plasmodium berghei [2]): >99.9%; logP ([3]; read-out: logP): 8.1

**Q.** Which results are given for C[C@H]1[C@@H](CC(COC(=O)c2ccc(Cl)nc2Cl)C[C@H]2O[C@@H]3O[C@@]4(C)CC[C@H]5[C@H](C)CC[C@@H]([C@H]2C)[C@@]35OO4)O[C@@H]2O[C@@]3(C)CC[C@H]4[C@H](C)CC[C@@H]1[C@@]24OO3?
**A.** Survival (Plasmodium berghei [1]): 30 days; Activity (Plasmodium berghei [2]): >99.9%; half-life [4]: 96 h; logP [3]: 9.5

**Q.** For C[C@H]1[C@@H](CC(COC(=O)c2ccncc2)C[C@H]2O[C@@H]3O[C@@]4(C)CC[C@H]5[C@H](C)CC[C@@H]([C@H]2C)[C@@]35OO4)O[C@@H]2O[C@@]3(C)CC[C@H]4[C@H](C)CC[C@@H]1[C@@]24OO3, which IC50 (Plasmodium) is on record?
**A.** 1.7 nM

**Q.** What about the Survival (Plasmodium berghei [1]) of the same molecule?
**A.** 24.3 days

**Q.** And the Activity (Plasmodium berghei [2])?
**A.** >99.9%

**Q.** And the logP ([3]; read-out: logP)?
**A.** 7.8

**Q.** What does the source list for C[C@H]1[C@@H](CC(CO)C[C@H]2O[C@@H]3O[C@@]4(C)CC[C@H]5[C@H](C)CC[C@@H]([C@H]2C)[C@@]35OO4)O[C@@H]2O[C@@]3(C)CC[C@H]4[C@H](C)CC[C@@H]1[C@@]24OO3 (stereo not given in full)?
**A.** Survival (Plasmodium berghei [1]): 26 days; Activity (Plasmodium berghei [2]): >99.9%

**Q.** Which Survival (Plasmodium berghei [1]) does the source give for C[C@H]1[C@@H](CC(COC(=O)c2ccnc(Cl)c2Cl)C[C@H]2O[C@@H]3O[C@@]4(C)CC[C@H]5[C@H](C)CC[C@@H]([C@H]2C)[C@@]35OO4)O[C@@H]2O[C@@]3(C)CC[C@H]4[C@H](C)CC[C@@H]1[C@@]24OO3 here?
**A.** 26 days

**Q.** What about the Activity (Plasmodium berghei [2]) of the same molecule?
**A.** >99.9%

**Q.** And the logP [3]?
**A.** 9.2

**Q.** Which results are given for C[C@H]1[C@@H](CC(COC(=O)c2cc(F)cc(F)c2)C[C@H]2O[C@@H]3O[C@@]4(C)CC[C@H]5[C@H](C)CC[C@@H]([C@H]2C)[C@@]35OO4)O[C@@H]2O[C@@]3(C)CC[C@H]4[C@H](C)CC[C@@H]1[C@@]24OO3?
**A.** Survival (Plasmodium berghei [1]): 29 days; Activity (Plasmodium berghei [2]): >99.9%; logP [3]: 9.3

**Q.** Which Survival (Plasmodium berghei [1]) does the source give for C[C@H]1[C@@H](CC(COC(=O)c2cc(Cl)cc(Cl)c2)C[C@H]2O[C@@H]3O[C@@]4(C)CC[C@H]5[C@H](C)CC[C@@H]([C@H]2C)[C@@]35OO4)O[C@@H]2O[C@@]3(C)CC[C@H]4[C@H](C)CC[C@@H]1[C@@]24OO3 here?
**A.** 30 days

**Q.** What about the Activity (Plasmodium berghei [2]) of the same molecule?
**A.** >99.9%

**Q.** What about the half-life [4] of the same molecule?
**A.** 96 h

**Q.** And the logP [3]?
**A.** 10.2

**Q.** Which Survival (Plasmodium berghei [1]) does the source give for CO[C@H]1O[C@@H]2O[C@@]3(C)CC[C@H]4[C@H](C)CC[C@@H]([C@H]1C)[C@@]24OO3 [ARTEMETHER] here?
**A.** 20.8 days

**Q.** What about the Activity (Plasmodium berghei [2]) of the same molecule?
**A.** >99.9%

**Q.** Which Survival (Plasmodium berghei [1]) does the source give for Cc1cc(C(=O)OCC(C[C@H]2O[C@@H]3O[C@@]4(C)CC[C@H]5[C@H](C)CC[C@@H]([C@H]2C)[C@@]35OO4)C[C@H]2O[C@@H]3O[C@@]4(C)CC[C@H]5[C@H](C)CC[C@@H]([C@H]2C)[C@@]35OO4)cc(Cl)n1 here?
**A.** 28.5 days

**Q.** What about the Activity (Plasmodium berghei [2]) of the same molecule?
**A.** >99.9%

**Q.** And the logP [3]?
**A.** 9.5

**Q.** For C[C@@H]1CC[C@H]2[C@@H](C)C(=O)O[C@@H]3O[C@@]4(C)CC[C@@H]1[C@]32OO4 [ARTEMISININ], which IC50 (Plasmodium) is on record?
**A.** 9 nM

**Q.** With C[C@H]1[C@@H](CC(COC(=O)c2cc(Cl)nc(Cl)c2)C[C@H]2O[C@@H]3O[C@@]4(C)CC[C@H]5[C@H](C)CC[C@@H]([C@H]2C)[C@@]35OO4)O[C@@H]2O[C@@]3(C)CC[C@H]4[C@H](C)CC[C@@H]1[C@@]24OO3 as the molecule, how does the Survival (Plasmodium berghei [1]) read?
**A.** 25.8 days

**Q.** And the Activity (Plasmodium berghei [2])?
**A.** >99.9%

**Q.** And the logP [3]?
**A.** 9.5
